Data published in paper PMC7717600, “Novel [(N-alkyl-3-indolylmethylene)hydrazono]oxindoles arrest cell cycle and induce cell apoptosis by inhibiting CDK2 and Bcl-2: synthesis, biological evaluation and in silico studies” (Journal of Enzyme Inhibition and Medicinal Chemistry, 2020).
Where two headings read alike, the source gives them in different places.

Tests used:
[1] = tested on: T-47D
[2] = tested on: HOP-62; settings: for TGI: HOP-62
[3] = tested on: MCF7; settings: for TGI: MCF7
[4] = tested on: HCT-15; assay: cells; settings: Homo sapiens
[5] = tested on: M14; assay: NCI SRB screening; assay type: cell-based
[6] = tested on: DU-145; settings: for TGI: DU-145
[7] = tested on: U251; settings: for TGI: U251
[8] = tested on: COLO 205; assay: NCI SRB screening; assay type: cell-based, human
[9] = tested on: HCC-2998; assay: NCI SRB screening; assay type: cell-based, human
[10] = tested on: MALME-3M; assay: cells; settings: Homo sapiens
[11] = tested on: SF-539; assay: cells; settings: Homo sapiens
[12] = tested on: SN12C; assay: cells; settings: Homo sapiens
[13] = tested on: SK-MEL-2; settings: for TGI: SK-MEL-2
[14] = tested on: OVCAR-4
[15] = tested on: MDA-MB-435; assay: NCI SRB screening; assay type: cell-based
[16] = tested on: SNB-75; assay: cells; settings: Homo sapiens
[17] = tested on: HS 578T; assay: cells; settings: Homo sapiens
[18] = tested on: SK-OV-3; assay: cells; settings: Homo sapiens, SK-OV-3, read-out: LC50
[19] = tested on: MDA-MB-468; assay: cells; settings: Homo sapiens

`CCCn1cc(C=NN=C2C(=O)Nc3ccc(C)cc32)c2ccccc21` [Compound 8a] was tested, and the GI50 [1] was 0.41 µM, the TGI [1] was 18.40 µM and the GI % ([1]; 10 μM) was 61%. For the same molecule, the “Growth Percent” value ([1]; 1.00E-5 Molar) was 39.59%, the TGI ([1]; listed as D - 795311 / 1) was 1.84E-5 Molar and the TGI [2] was 25.0 µM. The GI % ([2]; HOP-62, 10 μM) was 25%, the “Growth Percent” value ([2]; HOP-62, 1.00E-5 Molar) was 75.35% and the TGI ([2]; listed as D - 795311 / 1) was 2.50E-5 Molar. The TGI [3] was 15.50 µM, the GI % ([3]; MCF7, 10 μM) was 91% and the “Growth Percent” value ([3]; MCF7, 1.00E-5 Molar) was 8.92%. The TGI ([3]; listed as D - 795311 / 1) was 1.55E-5 Molar, the GI50 ([4]; HCT-15) was 2.63 µM and the CC50 ([4]; HCT-15, read-out: LC50) was > 100 µM. It also gave a GI50 ([5]; Homo sapiens, M14) of 1.92 µM, a TGI ([5]; M14) of 4.70 µM and a GI % ([5]; M14, 10 μM) of 44%. For the same molecule, the “Growth Percent” value ([5]; M14, 1.00E-5 Molar) was 56.29%, the TGI ([5]; M14, listed as D - 795311 / 1) was 4.70E-6 Molar and the TGI [6] was 40.60 µM. The GI % ([6]; DU-145, 10 μM) was 34%, the “Growth Percent” value ([6]; DU-145, 1.00E-5 Molar) was 66.43% and the TGI ([6]; listed as D - 795311 / 1) was 4.06E-5 Molar. For the same molecule, the TGI [7] was 17.3 µM, the GI % ([7]; U251, 10 μM) was 60% and the “Growth Percent” value ([7]; U251, 1.00E-5 Molar) was 39.96%. The TGI ([7]; listed as D - 795311 / 1) was 1.73E-5 Molar, the TGI ([8]; COLO 205) was 3.06 µM and the GI % ([8]; COLO 205, 10 μM) was 116%. The “Growth Percent” value ([8]; COLO 205, 1.00E-5 Molar) was -16.20%, the TGI ([8]; COLO 205, listed as D - 795311 / 1) was 3.06E-6 Molar and the GI50 ([8]; Homo sapiens, COLO 205) was 1.25 µM. For the same molecule, the TGI ([9]; HCC-2998) was 5.14 µM, the GI % ([9]; HCC-2998, 10 μM) was 53% and the “Growth Percent” value ([9]; HCC-2998, 1.00E-5 Molar) was 46.95%. The TGI ([9]; HCC-2998, listed as D - 795311 / 1) was 5.14E-6 Molar, the GI50 ([9]; Homo sapiens, HCC-2998) was 2.09 µM and the GI50 [10] was 1.88 µM. For the same molecule, the CC50 ([10]; read-out: LC50) was > 100 µM, the GI50 ([11]; SF-539) was 2.69 µM and the CC50 ([11]; SF-539, read-out: LC50) was > 100 µM. The GI50 [12] was 3.2 µM, the CC50 ([12]; read-out: LC50) was > 100 µM and the TGI [13] was 8.03 µM. The GI % ([13]; SK-MEL-2, 10 μM) was 65%, the “Growth Percent” value ([13]; SK-MEL-2, 1.00E-5 Molar) was 35.06% and the TGI ([13]; listed as D - 795311 / 1) was 8.03E-6 Molar. It also gave a GI50 ([14]; OVCAR-4) of 0.93 µM, a TGI ([14]; OVCAR-4) of 25.60 µM and a GI % ([14]; OVCAR-4, 10 μM) of 58%. The “Growth Percent” value ([14]; OVCAR-4, 1.00E-5 Molar) was 41.83%, the TGI ([14]; OVCAR-4, listed as D - 795311 / 1) was 2.56E-5 Molar and the GI50 ([15]; Homo sapiens, MDA-MB-435) was 1.5 µM. The TGI ([15]; MDA-MB-435) was 2.96 µM, the GI % ([15]; MDA-MB-435, 10 μM) was 127% and the “Growth Percent” value ([15]; MDA-MB-435, 1.00E-5 Molar) was -26.64%. The TGI ([15]; MDA-MB-435, listed as D - 795311 / 1) was 2.96E-6 Molar, the GI50 ([16]; SNB-75) was 2.31 µM and the CC50 ([16]; SNB-75, read-out: LC50) was > 100 µM. For the same molecule, the GI50 [17] was 11.3 µM, the CC50 ([17]; read-out: LC50) was > 100 µM and the CC50 [18] was > 100 µM. The GI50 ([19]; MDA-MB-468) was 1.69 µM and the CC50 ([19]; MDA-MB-468, read-out: LC50) was 79.4 µM.
